Patent US6911527B1, “HIV related peptides” (The United States of America as represented by the …, priority 1999, dated 2005)

What was measured:
[1] = tested on: binding of phagotope-specific antibodies to HIV-1; test: Displacement of binding of phagotope-specific antibodies to HIV-1 by phagotopes or peptides (ELISA); conditions: increasing concentrations of peptide
Experimental: FIG. 3. Phagotope-specific antibodies bind to HIV-1. a, ELISA reactivities of immunoaffinity purified antibodies with HIV-1. Antibodies were immunoaffinity purified from LTNP serum 6090 using single phagotopes as ligands and tested for ELISA reactivity against HIV-1 virions by using a standard ELISA kit (Organon). Purified antibodies were tested at 5-10 ng/ml; HIV-negative (CS) and serum 6090 (HIV-1S) were tested at 1:100 dilution. Data are expressed as mean±SEM of four independent determinations. b, The binding of phagotope-specific antibodies to HIV-1 is specifically displaced by the related phagotopes. ELISA reactivities of single immunopurified antibodies to HIV-I were tested in the presence of the indicated concentrations of p195 (▪), p197 (♦), p217 (●), p287 (▴), p335(▾). […] ELISA reactivities of single immunoaffinity purified antibodies with the related phagotopes were tested in the presence of increasing concentrations of peptides 195 (▪), 197 (▴), 217 (♦), 287 (ρ), 335 (●). d, HIV-1 immunoblotting with phagotope-specific human antibodies. Immunoffinity purified antibodies were tested at 60 ng/ml for binding to HIV-1 proteins in Western blot by a diagnostic kit (Cambridge Biotech.); 6090 LTNP serum was tested at 1:1000 dilution.
The phagotope specific antibodies, purified from serum to IgG concentrations of 5-10 ng/ml, recognized HIV-1 proteins by ELISA (FIG. 3a); this reactivity was specifically displaced by the related phagotopes, but not by wild-type or unrelated phages (FIG. 3b and data not shown).

[2] = tested on: serum antibodies of HIV-1-infected subjects; test: ELISA reactivity of phagotopes with human sera (LTNP, AIDS, HIV-negative); type: binding; conditions: for antibody titers to phagotope in sera from LTNPs versus AIDS patients: p<0.05, one-sided Student's t test
Text: FIG. 1. ELISA reactivities of HIV-specific phagotopes. a, LTNP and AIDS subjects were selected as reported (Pantaleo et al., N. Engl. J Med 332:209 (1995)). HIV-specific phagotopes were identified from RPL pVIII9aa-cys (selection 1), or pVIII9aa (selection 2) by serial steps of screening and phage colony purification as described in the Methods section. Results are expressed as fold increase of the average values of the phagotopes over values of the wild-type phages. Values were considered positive when at least four-fold higher than the background signal of wild-type phage. Average values of at least four independent assays are shown as <4; 4<<10; 10.1<<20; >20. The far right column indicates the recognition frequency of positive sera by each phagotope (f). The percentages of significant phage reactivity in the HIV-positive and control groups were compared using the Fisher Exact Test; p values (p<0.001) were adjusted for multiple testing using the Bonferroni method. b, Comparison of ELISA reactivities of phagotopes with sera of LTNP (hatched bars) versus AIDS subjects (black bars). Data are expressed as mean±SEM of fold increase for each phagotope. Statistical analysis was performed according to the one-sided Student's t test; asterisks indicate p<0.05.
To validate that the bound phagotopes carry HIV-specific epitopes, positive colonies were tested by ELISA for reactivity with sera from multiple HIV-infected individuals and counter-screened with an equivalent number of sera from HIV-negative subjects. For the EJISA analysis, microtiter plates were coated with anti M13 antibody (Pharmacia, Piscataway, N.J.) at 10 μg/ml overnight at 4° C. in coating buffer. Fifty μl of cleared phage supernatant with an equal volume of blocking buffer were incubated for 1 h at 37° C. Plates were washed extensively and supplemented with human serum at 1:100 dilution followed by an overnight incubation at 4° C. After washing, wells were coated with an anti-human (Fc-specific) alkaline phosphatase-conjugated antibody. Plates were washed and developed. Results were expressed as the difference between OD405 nm and OD620 nm by an ELISA reader.

[3] = ELISA reactivities of engineered (modified) peptide epitopes; type: binding
Experimental: The amino acid sequences of modifed peptides generated in this manner are as follows: • P195 analog: […] (SEQ ID NO: 14) • P197 analog: […] (SEQ ID NO:15) • P217 analog: […] (SEQ ID NO:16) • P287 analog: […] (SEQ ID NO: 17) • P335 analog: CSGRLYCHESWC (SEQ ID NO:18) • P54 analog: TKTLIYQGA (SEQ ID NO:19) The engineered eptiopes are then determined to be immunogenic as described in Example 4-6.

[4] = tested on: sera of SHIV-infected monkeys; test: ELISA reactivity of monkey sera with HIV-specific phagotopes; type: binding, macaques; conditions: nine SHIV-infected monkeys
Experimental: FIG. 4. ELISA reactivities of monkey sera with HIV-specific phagotopes. Sera of naive monkeys (SHIV Negative) and SHIV-infected animals were tested for binding to HIV-1 phagotopes. Results are expressed as fold increase of OD405 nm values of tested phagotope over the OD405 nm values of wild-type-phage. Cutoff values were set as detailed in the legend to FIG. 1a. All the pre-infection sera of SHIV-positive animals tested negative by ELISA (not shown). A125, 42C, E50 and AK98 are Rhesus macaques; 4138, 4150 and 79 are cynomologous macaques; these animals were infected with SHIVMD1 (Shibata et al., J. Infect. Dis. 176:362 (1997)). 17860 and 17846 are pigtail macaques infected with SHIVMD14YE (Shibata et al., J. Infect. Dis. 176:362 (1997)).
In order to test this hypothesis, sera of nine SHIV-infected monkeys and of four uninfected control animals were tested for ELISA reactivity with the pool of HIV mimotopes. As in the case of HIV-1 infected subjects (FIG. 1a), sera of SHIV-infected monkeys recognized the HIV-1 phagotopes with variable frequencies (FIG. 4).

| Sequence | displacement of antibody binding to HIV-1 by peptides in solution [1] | ELISA reactivities compared with the original peptides displayed on the phagotopes [3] | further results |
| --- | --- | --- | --- |
| CCGCLTCSV [compound 287] | Only a partial competition |  |  |
| CNGRLYCGP [p217] |  |  | recognition frequency (f) of positive sera by phagotope ([2]; 22 LTNP sera and 25 AIDS sera, serum 1:100, positive = at least four-fold over wild-type phage): 23%; antibody titers to phagotope in sera from LTNPs versus AIDS patients [2]: significantly higher in sera from LTNPs; ELISA reactivity with AIDS sera ([2]; pool of AIDS sera): completely unreactive |
| CNGRLYCGP [peptide 217] | Only a partial competition |  |  |
| CSGRLYCHESWC [P335 analog] |  | similar |  |
| EGEFCCAGQLTCSVCGDPAK [P287 analog] |  | similar |  |
| EGEFCCNGRLYCQPCGDPAK [P217 analog] |  | similar |  |
| EGEFCKSSGKLISLCGDPAK [P195 analog] |  | similar |  |
| EGEFCQTKLVCFAAAGDPAK [P197 analog] |  | similar |  |
| GTKLVCFAA [compound 197] | effectively displaced |  |  |
| KSSGKLISL [compound 195] | effectively displaced |  |  |
| SGRLYCHESW [compound 335] | effectively displaced |  |  |
| SGRLYCHESW [p335] |  |  | antibody titers to phagotope in sera from LTNPs versus AIDS patients [2]: significantly higher in sera from LTNPs |
| TKTLIYGGA [p54] |  |  | ELISA reactivity with sera of SHIV-infected monkeys [4]: certain SHIV sera recognized |
| TKTLIYQGA [P54 analog] |  | similar |  |
